SMILES strings stand for the structures. Entries after “also recorded” stand apart in the source; their conditions may differ.

In test [1] the target is T1, GST-tagged SIRT6 (Homo sapiens, UniProt Q8N6T7).
T1 construct: made in house; host or cells: E. coli BL21(DE3)-pRARE
Kind of test: HPLC-based SIRT6 deacetylation assay with H3K9Ac peptide.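 As to all read-outs here: recombinant SIRT6 incubated 30 min at 37 °C with 500 µM NAD+ and H3K9Ac peptide, deacetylated H3K9 quantified by reversed-phase HPLC-MRM peak area versus DMSO control.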 The format is biochemical. Conditions: for inhibition at 10 µM / Inhibition % 10 µM: 10 µM compound; for inhibition at 10 µM / Activation 100 µM / inhibition at 100 µM / Inhibition % 100 µM / Inhibition % 10 µM: mean ± SD, n=3; for Activation 100 µM / inhibition at 100 µM / Inhibition % 100 µM: 100 µM compound; for Activation 100 µM: 40 µM H3K9Ac, fold per Fig. 2C legend.

In the next test the target is T2, GST-SIRT6 (Homo sapiens, UniProt Q8N6T7).
T2 construct: made in house; host or cells: E. coli BL21(DE3)-pRARE
Kind of test: In vitro SIRT6 deacetylation of core histones, western blot of H3K9Ac. As to conditions: 100 µM. The format is biochemical. The protocol:
Western blot analysis was carried out as previously described, with slight modifications. […] The reaction was stopped with Laemmli (sample buffer) and separated by SDS-PAGE using 10–20% gradient gels and transferred onto polyvinylidene difluoride (PVDF) membranes. H3K9 acetylation was detected with rabbit anti-acetyl H3K9 antibody followed by anti-rabbit HRP-conjugated secondary antibody. Membranes were stripped and re-probed with rabbit anti-histone H3 antibody. Chemiluminescent signal detection and image acquisition were carried out using ECL prime western blotting detection reagents.
3 μg/well of a purified recombinant GST‐SIRT6 protein, 1.25 μg purified whole chicken core histones with 500 μM NAD+ in 25 mM Tris‐HCl, pH 8.0. Analysis were repeated three times and one representative cropped blot is shown (A). Uncropped blots probed with H3K9Ac (B), H3 (C). […]

The target of test [2] is T1, GST-tagged SIRT6. Details: method as in PMID 26607666. As to conditions: cited from earlier work.

T1 sequence (Q8N6T7 whole entry): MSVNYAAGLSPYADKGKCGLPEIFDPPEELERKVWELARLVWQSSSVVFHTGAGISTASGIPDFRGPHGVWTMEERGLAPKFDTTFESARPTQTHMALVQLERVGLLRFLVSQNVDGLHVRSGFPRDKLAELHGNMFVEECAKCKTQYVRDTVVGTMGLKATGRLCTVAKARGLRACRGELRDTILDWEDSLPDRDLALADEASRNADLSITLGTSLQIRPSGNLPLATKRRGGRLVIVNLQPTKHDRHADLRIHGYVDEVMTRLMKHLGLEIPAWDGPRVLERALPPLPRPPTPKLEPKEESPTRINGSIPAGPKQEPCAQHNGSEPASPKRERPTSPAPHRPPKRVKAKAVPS
T2 sequence (Q8N6T7 whole entry): as above

Regarding `O=c1c(O)c(-c2ccc(O)cc2)oc2cc(O)cc(O)c12` [Compound 14, Kaempferol], on GST-tagged SIRT6 [1], the “SIRT6 inhibition, in words” value is listed as “inhibitors as well as activators depending on the concentration”; the inhibition at 10 µM was determined as 40 ± 0.8%; the “Activation 100 µM” value was determined as 2.2 ± 0.1 fold; the inhibition at 100 µM is 24 ± 1.7%. Further, the “Maximal activation (fold)” value at GST-tagged SIRT6 [1] (at saturating concentrations of compound) was found to be 3.0 fold.

Regarding `Oc1cc(O)c2cc(O)c(-c3cc(O)c(O)c(O)c3)[o+]c2c1` [Compound 18, Delphinidin], at GST-tagged SIRT6 [1], the “SIRT6 activation, in words” value is reported as “increase in deacetylase activity; also recorded: weaker activity against SIRT6 than compound 17”; the “Activation 100 µM” value came out at 2.2 ± 0.1 fold; the inhibition at 100 µM amounted to 0%. Also, at GST-SIRT6, the “Increase of deacetylation activity (H3K9Ac on core histones)” value is around 2.5 fold.

On to `COc1cc(CCC(=O)O)ccc1O` [Compound 23, 3-(4-Hydroxy-3-methoxyphenyl)propionic acid], for which, at GST-tagged SIRT6 [1], the “SIRT6 activation, in words” value is listed as “increased slightly SIRT6 activation”; the “Activation 100 µM” value worked out at 1.8 ± 0.05 fold; the inhibition at 100 µM was -12 ± 1.1%.

As for `O=C(O[C@@H]1Cc2c(O)cc(O)cc2O[C@H]1c1cc(O)c(O)c(O)c1)c1cc(O)c(O)c(O)c1` [Compound 5, (−)-Gallocatechin gallate], at GST-tagged SIRT6 [1], the inhibition at 10 µM was found to be 79 ± 0.5% and the “Activation 100 µM” value was 0.01 ± 0.01 fold.

Regarding `O=C(O[C@@H]1Cc2c(O)cc(O)cc2O[C@@H]1c1ccc(O)c(O)c1)c1cc(O)c(O)c(O)c1` [Compound 8, (−)-Epicatechin gallate], at GST-tagged SIRT6 [1], the inhibition at 10 µM came out at 15 ± 0.9%, the “Activation 100 µM” value is listed as 0.1 ± 0.01 fold and the inhibition at 100 µM was found to be 60 ± 3.6%.

As for `COc1cc(/C=C/C(=O)O)cc(OC)c1O` [Compound 27, Sinapic Acid], on GST-tagged SIRT6 [1], the “SIRT6 inhibition, in words” value is “inactive”; the “Activation 100 µM” value is 0.6 ± 0.2 fold; the “Inhibition % 100 µM” value worked out at 8.0 ± 0.9%.

As to `O=C(O)C=Cc1ccc(O)cc1` [Compound 24, p-Coumaric acid], at GST-tagged SIRT6 [1], the “SIRT6 inhibition, in words” value was “inactive”; the “Activation 100 µM” value was 0.6 ± 0.1 fold; the inhibition at 100 µM amounted to 8.5 ± 1.2%.

Regarding `O=C1C[C@@H](c2ccc(O)c(O)c2)Oc2cc(O)cc(O)c21` [Compound 11, Eriodictoyl], at GST-tagged SIRT6 [1], the “SIRT6 inhibition, in words” value is reported as “did not improve the inhibitory activity towards SIRT6 compared to compound 1”; the “Inhibition % 10 µM” value is reported as 19 ± 2.2%; the “Activation 100 µM” value was found to be 1.1 fold; the “Inhibition % 100 µM” value came to 27 ± 1.5%.

With `O=c1cc(-c2ccc(O)cc2)oc2cc(O)cc(O)c12` [Compound 12, Apigenin], at GST-tagged SIRT6 [1], the “SIRT6 activation, in words” value was “inactive”; the “Activation 100 µM” value turned out to be 0.9 ± 0.01 fold; the inhibition at 100 µM was determined as 1 ± 0.6%.

Take `O=c1cc(-c2ccc(O)c(O)c2)oc2cc(O)cc(O)c12` [Compound 13, Luteolin]: on GST-tagged SIRT6 [1], the “SIRT6 inhibition, in words” value is listed as “weak inhibitor”; the inhibition at 10 µM worked out at 24 ± 1.8%; the “Activation 100 µM” value is reported as 1.2 ± 0.04 fold; the inhibition at 100 µM was found to be 29 ± 0.3%. Moreover, at GST-tagged SIRT6 [2], the “Modulation of SIRT6 deacetylation activity, in words” value is reported as “increase SIRT6 deacetylation activity at high concentrations, while also inhibiting deacetylation activity at low concentrations”.

For `O=C(O)/C=C/c1ccc(O)c(O)c1` [Compound 25, Caffeic Acid], on GST-tagged SIRT6 [1], the “SIRT6 inhibition, in words” value was “inactive”; the “Activation 100 µM” value amounted to 1.0 ± 0.01 fold; the inhibition at 100 µM is -5.9 ± 0.2%.

With `O=c1c(O)c(-c2ccc(O)c(O)c2)oc2cc(O)cc(O)c12` [Compound 15, Quercetin], at GST-tagged SIRT6 [1], the “SIRT6 inhibition, in words” value was “inhibitors as well as activators depending on the concentration”; the inhibition at 10 µM was 27 ± 0.4%; the “Activation 100 µM” value turned out to be 1.5 ± 0.1 fold; the inhibition at 100 µM was determined as 40 ± 3%. In addition, the “Modulation of SIRT6 deacetylation activity, in words” value at GST-tagged SIRT6 [2] is reported as “increase SIRT6 deacetylation activity at high concentrations, while also inhibiting deacetylation activity at low concentrations”.

Take `O=C(O[C@@H]1Cc2c(O)cc(O)cc2O[C@@H]1c1cc(O)c(O)c(O)c1)c1cc(O)c(O)c(O)c1` [Compound 9, (−)-Epigallocatechin gallate]: at GST-tagged SIRT6 [1], the “SIRT6 inhibition, in words” value is on record as “moderate inhibition”; the inhibition at 10 µM amounted to 10 ± 1.4%; the “Activation 100 µM” value came out at 0.8 ± 0.04 fold; the inhibition at 100 µM was found to be 42 ± 1.9%.

On to `Oc1cc(O)c2c(c1)O[C@H](c1ccc(O)c(O)c1)[C@@H](O)C2` [Compound 1, (+)-Catechin], for which, at GST-tagged SIRT6 [1], the inhibition at 10 µM was 17 ± 1.6%, the “Activation 100 µM” value is 0.8 ± 0.02 fold and the inhibition at 100 µM came to 26%.

As for `O=C(O[C@@H]1Cc2c(O)cc(O)cc2O[C@H]1c1ccc(O)c(O)c1)c1cc(O)c(O)c(O)c1` [Compound 4, (−)-Catechin gallate], on GST-tagged SIRT6 [1], the inhibition at 10 µM amounted to 62 ± 0.7% and the “Activation 100 µM” value is recorded as 0.1 ± 0.03 fold.

Regarding `Oc1cc(O)c2c(c1)O[C@@H](c1cc(O)c(O)c(O)c1)[C@H](O)C2` [Compound 3, (−)-Gallocatechin], at GST-tagged SIRT6 [1], the “SIRT6 inhibition, in words” value is given as “weak inhibitor”; the inhibition at 10 µM came out at 17 ± 0.8%; the “Activation 100 µM” value came to 0.2 ± 0.01 fold; the inhibition at 100 µM turned out to be 23 ± 1%.

`Oc1cc(O)c2c(c1)O[C@@H](c1ccc(O)c(O)c1)[C@H](O)C2` [Compound 2, (−)-Catechin]: on GST-tagged SIRT6 [1], the inhibition at 10 µM turned out to be 25 ± 0.8%, the “Activation 100 µM” value is 0.4 ± 0.04 fold and the inhibition at 100 µM worked out at 54%.

Consider `O=C(O)c1cc(O)c(O)c(O)c1` [Compound 22, Gallic Acid], for which, on GST-tagged SIRT6 [1], the “SIRT6 activation, in words” value was “increased slightly SIRT6 activation”; the “Activation 100 µM” value is 1.4 ± 0.04 fold; the inhibition at 100 µM came out at 14 ± 1.2%.

As for `O=c1c(-c2ccc(O)cc2)coc2cc(O)cc(O)c12` [Compound 19, Genistein], on GST-tagged SIRT6 [1], the “SIRT6 inhibition, in words” value is reported as “weak SIRT6 inhibitors”; the inhibition at 10 µM is 1.8 ± 0.3%; the “Activation 100 µM” value was found to be 0.7 ± 0.2 fold; the inhibition at 100 µM was determined as 9.6 ± 1.4%.

Regarding `O=C1C[C@@H](c2ccc(O)cc2)Oc2cc(O)cc(O)c21` [Compound 10, Naringenin], at GST-tagged SIRT6 [1], the “SIRT6 inhibition, in words” value is “did not improve the inhibitory activity towards SIRT6 compared to compound 1”; the inhibition at 10 µM came to 8.3 ± 1.1%; the “Activation 100 µM” value worked out at 1.1 ± 0.05 fold; the inhibition at 100 µM is 23 ± 1.5%.

On to `COc1ccc(-c2coc3cc(O)cc(O)c3c2=O)cc1` [Compound 20, Biochanin A], for which, on GST-tagged SIRT6 [1], the “SIRT6 activation, in words” value is recorded as “able to activate deacetylation of SIRT6”; the “SIRT6 inhibition, in words” value is listed as “weak SIRT6 inhibitors”; the “Inhibition % 10 µM” value is given as 13 ± 0.5%; the “Activation 100 µM” value was 1.3 ± 0.02 fold. For the same compound, the “Inhibition % 100 µM” value on GST-tagged SIRT6 [1] worked out at 24 ± 0.9%.

For `Oc1cc(O)c2c(c1)O[C@H](c1ccc(O)c(O)c1)[C@H](O)C2` [Compound 6, (−)-Epicatechin], the inhibition at 100 µM against GST-tagged SIRT6 [1] is 10 ± 0.1%.

With `NC(=O)c1cccnc1` [Compound 21, Nicotinamide, reference compound], the inhibition at 1000 µM on GST-tagged SIRT6 [1] is 58 ± 1.3%.

For the compound `O=c1c(O)c(-c2cc(O)c(O)c(O)c2)oc2cc(O)cc(O)c12` [Compound 16, Myricetin], at GST-tagged SIRT6 [1], the inhibition at 100 µM came to 0%.

Turning to `COc1cc(/C=C/C(=O)O)ccc1O` [Compound 26, trans-Ferulic acid], on GST-tagged SIRT6 [1], the “SIRT6 inhibition, in words” value was “inactive”; the “Activation 100 µM” value is 0.9 ± 0.6 fold; the “Inhibition % 100 µM” value is -8.6 ± 0.3%.

One may read the inhibition as the relative decrease from the control value, in per cent.

Values taken from paper PMC5841289, “Natural polyphenols as sirtuin 6 modulators” (Scientific Reports, 2018).
